For 3 compounds, Ki and EC50 results are on record in patent publication US6914122B2 (priority 2000, dated 2005).

*1 amine or outer side, *2 acyl side, *3 side chain or, on linkers, in order; H or OH if unused. Where a SMILES comes first, the peptide text is derived from it. Bridges are numbered along the chain shown (N, C = ends). [ ]: non-standard residue; d: D form. Heptanedioyl = O=C(CCCCCC(=O)[*:2])[*:1]; X1 = CCCC(N[*:1])C(=O)C(=O)[*:2]; Chg = N[C@H](C(=O)O)C1CCCCC1; Phg = N[C@H](C(=O)O)c1ccccc1

As usually defined, the Ki is the dissociation constant of the complex between target and ligand, obtained from inhibition or displacement. Usually EC50 stands for the midpoint of the concentration-response curve. A lower EC50 goes with a more potent agent.

The target of test [1] is Recombinant heterodimeric HCV NS3/NS4A protease (strain 1a) (Hepatitis C virus genotype 1a, UniProt P27958). Briefly: biochemical. Further details: species or system HCV (strain 1a).
For test [2], the target named is T1, HCV serine protease (subtype 1b, 1bNS4A21-32GS-GS NS 3-81 I17K) in HeLa/Huh7 cells (Hepatitis C virus genotype 1b, UniProt P26663, I1043K).
T1 construct: 1bNS4A21-32GS-GS NS 3-81 I17K; expressed in transfected cells; host or cells: HeLa/Huh7 cells
Description: Cell bioassay: HCV serine protease cell-based trans-cleavage assay. Further details: species or system Hepatitis C virus (subtype 1b).

Consider `CCCC(NC(=O)C1Cc2cccc(c2)OCCCCCCC(=O)NC(C2CCCCC2)C(=O)O1)C(=O)C(=O)NCC(=O)N[C@H](C(=O)N(C)C)c1ccccc1` (some centres unmarked) [Example 36], for which the Ki in test [1] is 1.1 to 100 µM. In addition, the EC50 in test [2] worked out at 9 µM. The like results for `CCCC(NC(=O)[C@@H]1Cc2cccc(c2)Oc2ccc(cc2)CCC(=O)N[C@@H](C2CCCCC2)C(=O)O1)C(=O)C(=O)NCC(=O)N[C@H](C(=O)N(C)C)c1ccccc1` (some centres unmarked) [Example 35] were, in that order, 1.1 to 100 µM and 20 µM. For the compound `CCCC(NC(=O)[C@@H]1CCCCNC(=O)CCCCCC(=O)N[C@@H](C2CCCCC2)C(=O)N1)C(=O)C(=O)NCC(=O)N[C@H](C(N)=O)c1ccccc1` (some centres unmarked) [Example 53] ([Chg]K[X1]G[Phg]-NH2; linker N-2 via Heptanedioyl), the Ki in test [1] lay within 0.001 to 1 µM.
